The target of test [1] is MER kinase (Homo sapiens (Human), UniProt Q12866). In words: Assay of small molecular compounds for inhibiting the activity of MER kinase (LANCE TR-FRET). Type of test: biochemical. In outline: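 MER kinase preincubated 5 min at RT with compound (11 points, 0.042-2500 nM final), then ULight-poly GT and ATP added (4× stocks 200 nM and 20 μM) for 60 min at RT, 1% DMSO. Phosphorylation detected by LANCE TR-FRET; IC50 from % inhibition versus controls.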
(In general: In TR-FRET formats the signal depends on donor and acceptor labels being close together.)

Test [2] concerns the target VEGFR-2 kinase (Homo sapiens (Human), UniProt P35968). In words: Assay of small molecular compounds for inhibiting the activity of VEGFR-2 kinase (LANCE TR-FRET). In kind it is biochemical. Conditions: read-out: VEGFR2 IC50. The method in brief: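 LANCE TR-FRET with human VEGFR-2 (2× stock 0.5 nM) preincubated 30 min with compound (final 2500 to 0.042 nM, 11-point 3-fold), then ULight-JAK-1 (Tyr1023) peptide/ATP added (4× stocks 200 nM/40 μM). Reaction 60 min room temperature, 4% DMSO; IC50 from inhibition-rate curve.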

Test [3] deals with MHCC97H cells. In words: Assay for inhibiting the proliferation of MHCC97H cells (CCK-8). In kind it is cell-based. Conditions: Homo sapiens. The method in brief:
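Cells seeded in 96-well plates overnight, then exposed 72 h to 9 three-fold dilutions of compound (0.25% DMSO final). Viability by CCK-8 (1-2 h at 37° C., OD 450 nm), survival normalized to untreated and cell-free blanks; IC50 by curve fitting.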

MER kinase, sequence (Q12866 21-999): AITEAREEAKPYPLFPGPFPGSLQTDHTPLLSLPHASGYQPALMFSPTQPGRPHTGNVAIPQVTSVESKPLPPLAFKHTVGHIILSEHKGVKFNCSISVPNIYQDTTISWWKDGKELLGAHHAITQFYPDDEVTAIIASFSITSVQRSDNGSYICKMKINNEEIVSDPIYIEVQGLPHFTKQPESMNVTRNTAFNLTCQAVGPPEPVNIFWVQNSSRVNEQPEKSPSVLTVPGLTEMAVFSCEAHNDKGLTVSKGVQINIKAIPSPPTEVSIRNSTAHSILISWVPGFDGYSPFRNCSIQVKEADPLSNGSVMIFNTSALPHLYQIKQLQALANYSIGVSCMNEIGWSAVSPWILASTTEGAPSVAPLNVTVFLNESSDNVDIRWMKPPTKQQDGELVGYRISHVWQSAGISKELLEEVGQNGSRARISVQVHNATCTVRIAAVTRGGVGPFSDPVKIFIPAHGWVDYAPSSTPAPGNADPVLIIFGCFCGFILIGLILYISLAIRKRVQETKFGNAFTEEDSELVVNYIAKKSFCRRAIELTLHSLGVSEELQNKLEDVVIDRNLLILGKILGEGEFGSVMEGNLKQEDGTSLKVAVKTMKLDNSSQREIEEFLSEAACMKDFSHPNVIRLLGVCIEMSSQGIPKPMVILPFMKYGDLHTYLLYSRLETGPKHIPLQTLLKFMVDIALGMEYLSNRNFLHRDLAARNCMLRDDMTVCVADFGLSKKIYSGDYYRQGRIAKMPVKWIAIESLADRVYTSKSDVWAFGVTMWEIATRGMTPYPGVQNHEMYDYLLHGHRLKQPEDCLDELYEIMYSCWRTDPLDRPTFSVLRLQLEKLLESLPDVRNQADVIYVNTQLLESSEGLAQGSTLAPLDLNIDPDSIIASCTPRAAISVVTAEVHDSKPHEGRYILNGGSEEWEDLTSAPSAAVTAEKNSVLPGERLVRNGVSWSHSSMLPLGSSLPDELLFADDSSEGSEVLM
VEGFR-2 kinase, sequence (P35968 20-1356): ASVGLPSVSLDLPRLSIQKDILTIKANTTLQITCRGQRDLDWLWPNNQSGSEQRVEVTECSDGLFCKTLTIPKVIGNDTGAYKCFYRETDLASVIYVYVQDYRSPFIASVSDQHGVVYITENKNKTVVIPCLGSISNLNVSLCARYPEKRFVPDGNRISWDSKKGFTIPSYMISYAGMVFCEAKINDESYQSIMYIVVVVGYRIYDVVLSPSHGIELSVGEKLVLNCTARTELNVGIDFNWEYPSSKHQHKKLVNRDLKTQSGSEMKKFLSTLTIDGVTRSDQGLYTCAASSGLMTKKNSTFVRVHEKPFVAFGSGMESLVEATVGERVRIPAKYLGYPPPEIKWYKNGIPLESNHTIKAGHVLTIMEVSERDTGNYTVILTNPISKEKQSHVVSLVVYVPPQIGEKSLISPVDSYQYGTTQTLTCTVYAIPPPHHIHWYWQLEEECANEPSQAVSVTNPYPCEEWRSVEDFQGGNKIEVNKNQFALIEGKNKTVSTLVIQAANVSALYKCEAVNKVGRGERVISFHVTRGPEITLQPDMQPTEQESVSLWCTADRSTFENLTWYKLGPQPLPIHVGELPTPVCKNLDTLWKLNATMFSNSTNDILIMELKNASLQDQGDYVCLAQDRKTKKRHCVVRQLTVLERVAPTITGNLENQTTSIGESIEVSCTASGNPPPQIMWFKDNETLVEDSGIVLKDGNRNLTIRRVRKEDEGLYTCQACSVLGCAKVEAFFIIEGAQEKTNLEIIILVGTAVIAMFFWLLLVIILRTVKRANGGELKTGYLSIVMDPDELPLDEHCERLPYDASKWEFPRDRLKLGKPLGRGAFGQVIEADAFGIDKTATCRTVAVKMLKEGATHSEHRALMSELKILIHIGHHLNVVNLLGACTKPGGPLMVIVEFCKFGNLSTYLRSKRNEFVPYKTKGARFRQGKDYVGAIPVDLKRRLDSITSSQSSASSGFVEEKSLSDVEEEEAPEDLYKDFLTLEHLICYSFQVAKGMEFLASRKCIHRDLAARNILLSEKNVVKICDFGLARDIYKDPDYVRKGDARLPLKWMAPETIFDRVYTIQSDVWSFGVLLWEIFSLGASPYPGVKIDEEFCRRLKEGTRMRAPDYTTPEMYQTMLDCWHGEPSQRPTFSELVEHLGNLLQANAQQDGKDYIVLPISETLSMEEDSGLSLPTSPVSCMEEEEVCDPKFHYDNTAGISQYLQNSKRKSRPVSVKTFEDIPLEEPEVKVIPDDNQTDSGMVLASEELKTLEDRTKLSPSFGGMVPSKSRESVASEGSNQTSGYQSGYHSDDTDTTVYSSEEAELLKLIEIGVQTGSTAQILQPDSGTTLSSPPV

Turning to `CCOc1ccn(-c2ccc(F)cc2)c(=O)c1C(=O)Nc1ccc(Oc2ccnc3cc(OC4CCOCC4)c4c(c23)OCCO4)c(F)c1` [Example 66, N-(4-((5-((tetrahydropyran-4-yl)oxy)-2,3-dihydro-[1,4]dioxino[2,3-f]quinolin-10-yl)oxy)-3-fluorophenyl)-4-ethoxy-1-(4-fluorophenyl)-2-oxo-1,2-dihydropyridine-3-carboxamide], the IC50 in test [1] is not above 50 nM; in test [2], 50 to 500 nM; in test [3], not above 50 nM.

Regarding `CCn1cc(C(=O)Nc2ccc(Oc3ccnc4cc(OCCOC)c5c(c34)OCCO5)c(F)c2)c(=O)n(-c2ccc(F)cc2)c1=O` [Example 44, N-(3-fluoro-4-((5-(2-methoxyethoxy)-2,3-dihydro-[1,4]dioxino[2,3-f]quinolin-10-yl)oxy)phenyl)-3-(4-fluorophenyl)-1-ethyl-2,4-dioxo-1,2,3,4-tetrahydropyrimidine-5-carboxamide], the figures for the IC50 in test [1], in test [2] and in test [3] were not above 50 nM, 50 to 500 nM and not above 50 nM, respectively.

Turning to `CCOc1ccn(-c2ccc(F)cc2)c(=O)c1C(=O)Nc1ccc(Oc2ccnc3cc(OCCCN4CCS(=O)(=O)CC4)c4c(c23)OCCO4)c(F)c1` [Example 51, N-(4-((5-(3-(1,1-dioxidothiomorpholino)propoxy)-2,3-dihydro-[1,4]dioxino[2,3-f]quinolin-1 0-yl)oxy)-3-fluorophenyl)-4-ethoxy-1-(4-fluorophenyl)-2-oxo-1,2-dihydropyridine-3-carboxamide], the IC50 in test [1], in test [2] and in test [3] was not above 50 nM throughout.

Consider `CCOc1ccn(-c2ccc(F)cc2)c(=O)c1C(=O)Nc1ccc(Oc2ccnc3cc(OCCCN4CCOCC4)c4c(c23)OCCO4)cc1Cl` [Example 73, N-(2-chloro-4-((5-(3-morpholinopropoxy)-2,3-dihydro-[1,4]dioxino[2,3-f]quinolin-10-yl)oxy)phenyl)-4-ethoxy-1-(4-fluorophenyl)-2-oxo-1,2-dihydropyridine-3-carboxamide], for which the values for the IC50 in test [1], in test [2] and in test [3] were not above 50 nM, 50 to 500 nM and not above 50 nM, respectively.

Turning to `COCCCOc1cc2nccc(Oc3ccc(NC(=O)c4cn(C)c(=O)n(-c5ccc(F)cc5)c4=O)cc3F)c2c2c1OCCO2` [Example 80, N-(3-fluoro-4-((5-(3-methoxypropoxy)-2,3-dihydro-[1,4]dioxino[2,3-f]quinolin-10-yl)oxy)phenyl)-3-(4-fluorophenyl)-1-methyl-2,4-dioxo-1,2,3,4-tetrahydropyrimidine-5-carboxamide], the IC50 in test [1] is not above 50 nM; in test [2], 500 to 5000 nM; in test [3], not above 50 nM.

For the compound `COc1cc2ncnc(Oc3ccc(NC(=O)c4c(OC)ccn(-c5ccc(F)cc5)c4=O)cc3F)c2c2c1OCCO2` [Example 2, N-(3-fluoro-4-((5-methoxy-2,3-dihydro-[1,4]dioxino[2,3-f]quinazolin-10-yl)oxy)phenyl)-1-(4-fluorophenyl)-4-methoxy-2-oxo-1,2-dihydropyridine-3-carboxamide], the values for the IC50 in test [1], in test [2] and in test [3] were not above 50 nM, 50 to 500 nM and 200 to 1000 nM, respectively.

On to `COc1cc2nccc(Oc3ccc(NC(=O)c4cn(CCO)c(=O)n(-c5ccc(F)cc5)c4=O)cc3F)c2c2c1OCCO2` [Example 45, N-(3-fluoro-4-((5-methoxy-2,3-dihydro-[1,4]dioxino[2,3-f]quinolin-10-yl)oxy)phenyl)-3-(4-fluorophenyl)-1-(2-hydroxyethyl)-2,4-dioxo-1,2,3,4-tetrahydropyrimidine-5-carboxamide], for which the results for the 50% inhibitory concentration (IC50) in test [1], in test [2] and in test [3] were not above 50 nM, 500 to 5000 nM and 200 to 1000 nM, respectively.

In the case of `CCOc1ccn(-c2ccc(F)cc2)c(=O)c1C(=O)Nc1ccc(Oc2ccnc3cc(OCCCN4CCOCC4)c4c(c23)OCCO4)c(Cl)c1` [Example 72, N-(4-((5-(3-morpholinopropoxy)-2,3-dihydro-[1,4]dioxino[2,3-f]quinolin-10-yl)oxy)-3-chlorophenyl)-4-ethoxy-1-(4-fluorophenyl)-2-oxo-1,2-dihydropyridine-3-carboxamide], the concentration for half-maximal inhibition (IC50) in test [1], in test [2] and in test [3] was not above 50 nM in each case.

In the case of `CCOc1ccn(-c2ccc(F)cc2)c(=O)c1C(=O)Nc1ccc(Oc2ccnc3cc(OCCCN4CCN(C)CC4)c4c(c23)OCCO4)c(F)c1` [Example 49, N-(3-fluoro-4-((5-(3-(4-methylpiperazin-1-yl)propoxy)-2,3-dihydro-[1,4]dioxino[2,3-f]quinolin-10-yl)oxy)phenyl)-1-(4-fluorophenyl)-4-ethoxy-2-oxo-1,2-dihydropyridine-3-carboxamide], the IC50 in test [1], in test [2] and in test [3] was not above 50 nM throughout.

`CCOc1ccn(-c2ccc(F)cc2)c(=O)c1C(=O)Nc1ccc(Oc2ccnc3cc(OC4CCOC4)c4c(c23)OCCO4)c(F)c1` (stereo not drawn) [Example 65, N-(4-((5-((tetrahydrofuran-3-yl)oxy)-2,3-dihydro-[1,4]dioxino[2,3-f]quinolin-10-yl)oxy)-3-fluorophenyl)-4-ethoxy-1-(4-fluorophenyl)-2-oxo-1,2-dihydropyridine-3-carboxamide]: the IC50 is not above 50 nM in test [1], 50 to 500 nM in test [2] and not above 50 nM in test [3].

Consider `COCCn1cc(C(=O)Nc2ccc(Oc3ccnc4cc(OC)c5c(c34)OCCO5)c(F)c2)c(=O)n(-c2ccc(F)cc2)c1=O` [Example 46, N-(3-fluoro-4-((5-methoxy-2,3-dihydro-[1,4]dioxino[2,3-f]quinolin-10-yl)oxy)phenyl)-3-(4-fluorophenyl)-1-(2-methoxyethyl)-2,4-dioxo-1,2,3,4-tetrahydropyrimidine-5-carboxamide], for which the values for the IC50 in test [1], in test [2] and in test [3] were not above 50 nM, 500 to 5000 nM and not above 50 nM, respectively.

As for `CCOc1ccn(-c2ccc(F)cc2)c(=O)c1C(=O)Nc1ccc(Oc2ccnc3cc(OCCCC#N)c4c(c23)OCCO4)c(F)c1` [Example 57, N-(4-((5-(3-cyanopropoxy)-2,3-dihydro-[1,4]dioxino[2,3-f]quinolin-10-yl)oxy)-3-fluorophenyl)-4-ethoxy-1-(4-fluorophenyl)-2-oxo-1,2-dihydropyridine-3-carboxamide], the IC50 in test [1], in test [2] and in test [3] was not above 50 nM throughout.

Regarding `CCOc1ccn(-c2ccc(F)cc2)c(=O)c1C(=O)Nc1ccc(Oc2ccnc3cc(OCC#N)c4c(c23)OCCO4)c(F)c1` [Example 56, N-(4-((5-(cyanomethoxy)-2,3-dihydro-[1,4]dioxino[2,3-f]quinolin-10-yl)oxy)-3-fluorophenyl)-4-ethoxy-1-(4-fluorophenyl)-2-oxo-1,2-dihydropyridine-3-carboxamide], the IC50 was not above 50 nM in test [1], 50 to 500 nM in test [2] and not above 50 nM in test [3].

As to `CCOc1ccn(-c2ccc(F)cc2)c(=O)c1C(=O)Nc1ccc(Oc2ccnc3cc(OCCCN4CCN(C(C)=O)CC4)c4c(c23)OCCO4)c(F)c1` [Example 50, N-(4-((5-(3-(4-acetyl-piperazin-1-yl)propoxy)-2,3-dihydro-[1,4]dioxino[2,3-f]quinolin-10-yl)oxy)-3-fluorophenyl)-4-ethoxy-1-(4-fluorophenyl)-2-oxo-1,2-dihydropyridine-3-carboxamide], the IC50 in test [1], in test [2] and in test [3] was not above 50 nM in each case.

A word on the IC50: it is the concentration that inhibits the measured activity by half.
